In US20070212717A1, “Method for Inhibiting Hepatitis C Virus Replication” (priority 2006, published 2007):

Assays:
[1] = system: PIK4CA transcript; test: siRNA transfection of MP1 cells, real-time RT-PCR of PIK4CA transcript levels; type: cell-based, human
Source text: In order to confirm that knockdown of PI4K inhibits HCV RNA replication, an independent method of suppressing the host gene using siRNA synthetic oligonucleotides, is implemented. […] The effect is specific in that transfection of non-specific oligonucleotides elicits no effect on HCV RNA replication. For the siRNA oligo transfection experiments, the MP1 cells (human hepatoma Huh-7 cell line harboring HCV RNA replicon with a luciferase reporter gene, as described above) are also used. Cells are maintained in DMEM High glucose (Wisent Inc.) supplemented with 10% fetal bovine serum (FBS; HyClone) containing neomycin (250 μg/ml) (Geneticin; Invitrogen). The assay medium lacks the neomycin. […]
(§1) The negative control corresponds to a no match NS5B sequence (AAGAGAGUCAGUCAGCUAAUCAC) [SEQ ID NO. […] Moreover, RNA is also isolated (using the 96-well Qiagen extraction method as described in example 1) from a replicate plate of transfected cells such that real-time RT-PCR quantifying HCV replicon copy number (as described in example 1) and cellular transcript RNA levels are performed. The method of quantifying host transcript RNA levels is similar to HCV RNA quantification except that the primers and the TaqMan probe are specific for the PIK4CA gene. […]
A standard curve for a relative quantification of PIK4CA transcript expression per μg total RNA is established for each transcript. […]

[2] = system: hepatitis C virus; settings: two day clinical trial; cited from earlier work
[3] = system: HCV RNA replicon; test: siRNA transfection of MP1 cells, HCV replicon luciferase assay; type: cell-based, hepatitis C virus; settings: luciferase reporter or HCV RNA
Protocol: The “Luciferase assay system” from Promega is used to measure firefly luciferase (reporter) expression in the MP1 cell line in a 96-well format with the following protocol: • Prepare the Luciferase assay reagent by adding Luciferase assay buffer to the vial containing the lyophilized Luciferase assay substrate • Prepare 1× Luciferase cell culture lysis reagent by adding 4 volumes of water to 1 volume of 5× lysis buffer • Carefully remove the assay medium from cells • Rinse cells with 100 μl PBS buffer being careful to not dislodge attached cells • A black backing tape (Packard) is applied on bottom side of the 96-well black clear bottom plate. • Aliquot 30 μl/well of 1× Luciferase cell culture lysis reagent • Incubate at room temperature 10 minutes minimum • Aliquot 150 μl/well of Luciferase assay reagent and immediately measure the light produced on a TopCount NXT Instrument (Packard) (count time=2 s/well) […]
as §1, with “performed.” for “performed. The method of quantifying host transcript RNA levels is similar to HCV RNA quantification except that the primers and the TaqMan probe are specific for the PIK4CA gene.”

Compound | effect on PIK4CA transcript levels ([1]; controls (siRNA 10 nM; BILN 2061 100 nM)) | viral loads in patients infected with the hepatitis C virus [2] | reduction of PIK4CA transcript levels ([1]; 10 nM siRNA, RT-PCR, relative to DharmaFECT only) | inhibition of HCV replicon levels [3]
COc1ccc2c(O[C@@H]3C[C@H]4C(=O)N[C@]5(C(=O)O)C[C@H]5/C=C\CCCCC[C@H](NC(=O)OC5CCCC5)C(=O)N4C3)cc(-c3csc(NC(C)C)n3)nc2c1 [BILN2061] | no effect | effective in rapidly reducing viral loads | – | –
PIK4CA siRNA #9: siRNA (si Genome duplex, Dharmacon) with defined sequence # 9 targeting a segment on the host transcript (GCAGAAATTTGGCCTGTTT; listed as DNA, further chemistry not given here) | – | – | ~25% | proportionally lower inhibition
